Series [1] deals with picryl chloride-induced type IV allergy. Kind of series: Inhibiting effect on a picryl chloride-induced type IV allergy (3-arylpurine derivatives). The class given is in vivo, male ICR strain mice. To be noted: left auricula thickness at 24 hours. As to the method:
(§1) The abdomen of 6-weeks old male ICR strain mice was shaven and 0.1 ml of a 7% picryl chloride solution in acetone was applied to the epithelium of the abdomen for immunization. After one week, 5 μl of a 1% picryl chloride solution in olive oil was applied to both sides of the left auricula to induce an allergy reaction. A given amount of a test substance was suspended in a 0.5% CMC-Na solution and the resulting suspension was administered orally to each mouse twice, i.e., just after the induction and 16 hours after. The thickness of the left auricula was measured both before the induction and 24 hours after.
(§2) The difference between the thickness of the left auricula before the induction and the value measured 24 hours after was calculated as the increase in thickness. Using a reference group to which only a 0.5% CMC-Na solution was administered orally, a reference value for the increase in thickness was obtained. The percent inhibition was determined as 100% when the increase in thickness was zero and as 0% when the increase in thickness was equal to the reference value. On the basis of these criteria, the percent inhibition of each test substance was calculated at varying doses.

The test system is the same in series [2]. Kind of series: Inhibiting effect on a picryl chloride-induced type IV allergy (1-aryluracil derivatives). It counts as in vivo, male ICR strain mice. To be noted: Mus musculus, po, read-out: Percent Inhibition; for inhibition in vivo at 100 mg/kg: 100 mg/kg orally twice (just after induction and 16 hours after). As to the method:
as §1, §2

A short description of series [3]: Toxicity Test (Experimental Example 2, 3-arylpurine derivatives). The class given is in vivo, male SD rats. Conditions: 1,000 mg/kg orally once a day for 2 consecutive weeks. As to the method: (§3) A test substance was suspended in a 0.5% CMC-Na solution and administered orally to 6-weeks old male SD rats once a day at a dose of 1,000 mg/kg for 2 consecutive weeks. The weight of each rat was measured both before the administration and every day during the administration. A given amount of blood was collected on the day after the end of the administration period and examined. Collected urine was also examined. In addition, organs were checked for any aberrations by autopsy.

Series [4] can be described thus: Toxicity Test (Experimental Example 1, 1-aryluracil derivatives). The class given is in vivo, male SD rats. To be noted: 1,000 mg/kg orally once a day for 2 consecutive weeks. Here is the method: as §3
Series [5] concerns passive cutaneous anaphylaxis (PCA) reaction. Briefly: Inhibiting effect on a 48 hour PCA reaction (test method for compound prepared in Example 22). Conditions: 100 mg/kg orally 30 minutes before the induction; dye leakage. It counts as in vivo, male Wistar strain rats. As to the method:
(§4) Eight-weeks old male Wistar strain rats were immunized by subcutaneously injecting 0.1 ml of 700-fold diluted DNP-Ascaris antiserum (titer=1:1024) at two positions on the dorsum. Forty-eight hours after the immunization, 1 ml of a 0.5% Evans blue solution containing 1 mg of DNP-Ascaris antigen was administered into a pedal vein to induce a PCA reaction. Thirty minutes after the induction, the rats were bled to death and blue circular parts appearing at the immunized positions were excised. The dye was extracted from the blue circular parts with ethyl acetate and the amount of the dye leakage was determined. A test substance was suspended in a 0.5% CMC-Na solution and administered orally to each rat at a dose of 100 mg/kg 30 minutes before the induction.
(§5) Using a reference group to which only a 0.5% CMC-Na solution was administered orally, a reference value for the amount of dye leakage was obtained. The percent inhibition was determined as 100% when the amount of dye leakage was zero and as 0% when the amount of dye leakage was equal to the reference value. On the basis of these criteria, the percent inhibition of each test substance was calculated at varying doses.

The test system is the same in series [6]. Kind of series: Inhibiting effect on a 48 hour PCA reaction (test method for compound prepared in Example 1). The class given is in vivo, male Wistar strain rats. Conditions: dye leakage. As to the method: as §4, with “0.05” for “0.1”, “50-fold” for “700-fold”, “(titer=1:64)” for “(titer=1:1024)”, “four” for “two”, “tail” for “pedal”, “1 hour” for “at a dose of 100 mg/kg 30 minutes”
as §5

[7] abbreviates: 10 mg/kg orally twice (just after induction and 16 hours after).
[8] abbreviates: 10 mg/kg orally twice (just after induction and 16 hours after), left auricula thickness at 24 hours.
[9] abbreviates: left auricula thickness at 24 hours.
[10] abbreviates: 100 mg/kg orally twice (just after induction and 16 hours after).

Like-named read-outs stand apart in the source and are kept apart here.

The record followed here is patent US5661153A, “1-arylpyrimidine derivatives and pharmaceutical use thereof” (Japan Energy Corporation, priority 1994, dated 1997).

Consider `Cn1c(=O)c2[nH]c(-c3ccc(O)c(O)c3)nc2n(-c2ccccc2)c1=O` [Example 78, 8-(3,4-Dihydroxyphenyl)-1-methyl-3-phenylpurine-2,6-dione], for which the “Percent Inhibition” value in series [1] (setting [7]) amounted to 35%.
Take `CC(=O)Oc1ccc(C(=O)Nc2c(N)n(-c3ccccc3)c(=O)n(C)c2=O)cc1OC(C)=O` [Example 34, 6-Amino-5-(3,4-diacetoxyphenyl)carboxyamido-3-methyl-1-phenyluracil]: the inhibition in vivo at 10 mg/kg in series [2] (setting [8]) amounted to 33%. For the same compound, in series [2] (setting [9]), the inhibition in vivo at 100 mg/kg turned out to be 52%.
Take `COc1ccc(-n2c(=O)n(C)c(=O)c3[nH]c(-c4cc(C(C)(C)C)c(O)c(C(C)(C)C)c4)nc32)cc1` [Example 75, 8-(3,5-Di-tert-butyl-4-hydroxyphenyl)-3-(4-methoxyphenyl)-1-methylpurine-2,6-dione]: the entries for the “Percent Inhibition” value in series [1] (setting [7]) and in series [1] (setting [10]) were 16% and 34%, respectively.
Turning to `Cn1c(=O)c(NC(=O)C2(C)CCCCC2)c(N)n(-c2ccccc2)c1=O` [Example 61, 6-Amino-3-methyl-5-(1-methylcyclohexyl)carboxyamido-1-phenyluracil], in series [2] (setting [9]), the inhibition in vivo at 100 mg/kg is 32%.
Consider `Cn1c(=O)c(NC(=O)c2cc(=O)cco2)c(N)n(-c2ccccc2)c1=O` [Example 51, 6-Amino-3-methyl-5-(4-oxo-4H-pyran-2-yl)carboxyamido-1-phenyluracil], for which the inhibition in vivo at 10 mg/kg in series [2] (setting [8]) was 45%.
With `Cn1c(=O)c2[nH]c(-c3cc(C(C)(C)C)c(O)c(C(C)(C)C)c3)nc2n(-c2ccccc2)c1=O` [Example 74, 8-(3,5-Di-tert-butyl-4-hydroxyphenyl)-1-methyl-3-phenylpurine-2,6-dione], the “Percent Inhibition” value in series [1] (setting [7]) amounted to 38%. For the same compound, in series [3], the autopsy result is given as “no abnormality was observed”, the blood examination entry is on record as “no abnormality was observed”, the “death during the administration period” value was “no rat died” and the urine examination entry is on record as “no abnormality was observed”. Moreover, the weight change entry in series [3] was “no abnormality was observed”.
Turning to `COc1ccc(O)c(C(=O)Nc2c(N)n(-c3ccccc3)c(=O)n(C)c2=O)c1` [Example 53, 6-Amino-5-(2-hydroxy-5-methoxyphenyl)carboxyamido-3-methyl-1-phenyluracil], in series [2] (setting [8]), the inhibition in vivo at 10 mg/kg was determined as 45%. Moreover, in series [4], the autopsy entry is recorded as “no abnormality was observed”, the blood examination result is recorded as “no abnormality was observed”, the “death during the administration period” value is “no rat died” and the urine examination entry is “no abnormality was observed”. In addition, the weight change entry in series [4] is on record as “no abnormality was observed”.
For `CC(=O)Oc1cc(OC(C)=O)cc(C(=O)Nc2c(N)n(-c3ccccc3)c(=O)n(C)c2=O)c1` [Example 7, 6-Amino-5-(3,5-diacetoxyphenyl)carboxyamido-3-methyl-1-phenyluracil], in series [2] (setting [8]), the inhibition in vivo at 10 mg/kg was 65%. Moreover, in series [4], the autopsy result is “no abnormality was observed”, the blood examination result is reported as “no abnormality was observed”, the “death during the administration period” value is “no rat died” and the urine examination entry is reported as “no abnormality was observed”. Further, the weight change entry in series [4] is given as “no abnormality was observed”.
As to `C[C@]12C=CC(=O)C=C1CC[C@@H]1[C@@H]2[C@@H](O)C[C@@]2(C)[C@H]1CC[C@]2(O)C(=O)CO` [Prednisolone, prednisolone, reference compound], the “Percent Inhibition” value in series [1] (setting [7]) is on record as 67%. Moreover, the inhibition in vivo at 10 mg/kg in series [2] (24 h) is 77%.
Regarding `Cn1c(=O)c(NC(=O)c2cc(C(C)(C)C)c(O)c(C(C)(C)C)c2)c(N)n(-c2ccc(F)cc2)c1=O` [Example 2, 6-Amino-5-(3,5-di-tert-butyl-4-hydroxyphenyl)carboxyamido-1-(4-fluorophenyl)-3-methyluracil], the inhibition in vivo at 3 mg/kg in series [2] (3 mg/kg orally twice (just after induction and 16 hours after), left auricula thickness at 24 hours) came to 38%.
As for `COc1ccc(-n2c(N)c(NC(=O)c3cc(OC)ccc3OC(C)=O)c(=O)n(C)c2=O)cc1` [Example 55, 5-(2-Acetoxy-5-methoxyphenyl)carboxyamido-6-amino-1-(4-methoxyphenyl)-3-methyluracil], in series [2] (setting [9]), the inhibition in vivo at 100 mg/kg was 35%.
For `CC(=O)Oc1cc(C(=O)Nc2c(N)n(-c3ccccc3)c(=O)n(C)c2=O)cc(OC(C)=O)c1OC(C)=O` [Example 22, 6-Amino-3-methyl-1-phenyl-5-(3,4,5-triacetoxyphenyl)carboxyamidouracil], the “Percent Inhibition” value in series [5] is reported as 50%. The inhibition in vivo at 10 mg/kg in series [2] (setting [8]) turned out to be 48%. In addition, in series [2] (setting [9]), the inhibition in vivo at 100 mg/kg is 72%.
On to `CC(=O)Oc1cc(OC(C)=O)cc(C(=O)Nc2c(N)n(-c3ccc(F)cc3)c(=O)n(C)c2=O)c1` [Example 8, 6-Amino-5-(3,5-diacetoxyphenyl)carboxyamido-1-(4-fluorophenyl)-3-methyluracil], for which the inhibition in vivo at 10 mg/kg in series [2] (setting [8]) turned out to be 43%.
Same read-out and setting: in the case of `CC1CCC(C(=O)Nc2c(N)n(-c3ccccc3)c(=O)n(C)c2=O)CC1` (stereo not drawn) [Example 60, 6-Amino-3-methyl-5-(4-methylcyclohexyl)carboxyamido-1-phenyluracil] it was 40%; in that of `Cn1c(=O)c(NC(=O)c2cc(O)cc(O)c2)c(N)n(-c2ccccc2)c1=O` [Example 14, 6-Amino-5-(3,5-dihydroxyphenyl)carboxyamido-3-methyl-1-phenyluracil], 45%.
Regarding `Cn1c(=O)c(NC(=O)c2ccc(=O)oc2)c(N)n(-c2ccccc2)c1=O` [Example 52, 6-Amino-3-methyl-5-(2-oxo-2H-pyran-5-yl)carboxyamido-1-phenyluracil], the inhibition in vivo at 10 mg/kg in series [2] (setting [8]) was 19%. Further, the inhibition in vivo at 100 mg/kg in series [2] (setting [9]) worked out at 39%.
Turning to `CC(=O)Oc1cc(-c2nc3c([nH]2)c(=O)n(C)c(=O)n3-c2ccccc2)cc(OC(C)=O)c1OC(C)=O` [Example 80, 1-Methyl-3-phenyl-8-(3,4,5-triacetoxyphenyl)purine-2,6-dione], the “Percent Inhibition” value in series [1] (setting [7]) was 37%; in series [1] (setting [10]) it was 53%.
Turning to `Cn1c(=O)c(NC(=O)c2cc(C(C)(C)C)c(O)c(C(C)(C)C)c2)c(N)n(-c2ccccc2)c1=O` [Example 1, 6-Amino-5-(3,5-di-tert-butyl-4-hydroxyphenyl)carboxyamido-3-methyl-1-phenyluracil], the “Percent Inhibition” value is reported as 33% in series [6] (3 mg/kg orally 1 hour before the induction) and 49% in series [6] (30 mg/kg orally 1 hour before the induction). Moreover, the inhibition in vivo at 10 mg/kg in series [2] (setting [8]) was determined as 54%.
In the case of `CCCn1c(=O)c(NC(=O)c2cc(OC(C)=O)cc(OC(C)=O)c2)c(N)n(-c2ccccc2)c1=O` [Example 11, 6-Amino-5-(3,5-diacetoxyphenyl)carboxyamido-1-phenyl-3-propyluracil], in series [2] (setting [9]), the inhibition in vivo at 100 mg/kg worked out at 30%.
Consider `Cc1ccc(-n2c(N)c(NC(=O)c3cc(C(C)(C)C)c(O)c(C(C)(C)C)c3)c(=O)n(C)c2=O)cc1` [Example 3, 6-Amino-5-(3,5-di-tert-butyl-4-hydroxyphenyl)carboxyamido-3-methyl-1-(4-methylphenyl)uracil], for which, in series [2] (setting [8]), the inhibition in vivo at 10 mg/kg was 33%.
On the same count and under the same terms, in the case of `COc1ccc(-n2c(N)c(NC(=O)c3cc(C(C)(C)C)c(O)c(C(C)(C)C)c3)c(=O)n(C)c2=O)cc1` [Example 4, 6-Amino-5-(3,5-di-tert-butyl-4-hydroxyphenyl)carboxyamido-1-(4-methoxyphenyl)-3-methyluracil] it was 35%.
